Where two headings read alike, the source gives them in different places.
Key:
[1] = test system: THP1-Dual cells (ISG54 promoter Lucia luciferase reporter); test: THP-1 Dual Lucia Reporter Gene Assay; format: cell-based, human; conditions: Lucia luciferase signal induction, 20 hours at 37° C., read-out: Cellular THP 1 EC50
Experimental: THP1-Dual™ cells (InvivoGen #thpd-nfis) were derived from the human THP-1 monocyte cell line by stable integration of the Lucia luciferase gene, a secreted luciferase reporter gene, under the control of an ISG54 (interferon-stimulated gene) minimal promoter in conjunction with five interferon (IFN)-stimulated response elements. […] The cell plates were dosed with 62.5 nL of the testing compounds, and then incubated at 37° C. for 20 hours. At the end of the incubation, 15 μL/well of the QUANTI-Luc™ (InvivoGen #rep-q1c1) were added, and luminescence was measured immediately using the LeadSeeker.
Compound concentration versus percent signal induction curves were fitted to generate EC50 values.

[2] = target: Human STING (residues 140-379, H232R) (Homo sapiens (Human), UniProt Q86WV6, H232R); test: Human STING TR-FRET Assay; conditions: read-out: Enz-TR-Fret IC50, fluorescein labeled ligand 100 nM, STING protein 100 nM, 60 minutes at rt
Sequence of Human STING (residues 140-379, H232R) (Q86WV6 140-379 H232R): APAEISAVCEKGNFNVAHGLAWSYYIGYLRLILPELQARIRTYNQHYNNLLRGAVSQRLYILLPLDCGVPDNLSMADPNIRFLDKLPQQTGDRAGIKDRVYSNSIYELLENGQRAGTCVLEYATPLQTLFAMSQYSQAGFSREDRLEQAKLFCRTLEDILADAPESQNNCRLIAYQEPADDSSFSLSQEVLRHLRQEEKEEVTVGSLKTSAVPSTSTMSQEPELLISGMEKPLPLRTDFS
Experimental: The sequence was verified before recombinant protein expression using E. coli expression system.
For expression, STING expression vector was transformed into BL21(DE3) cells. The expression was induced by adding IPTG and expressing in 16° C. for 20 hours.
Biotinylation was confirmed by Mass Spectrometry analysis.
Then 2 uL STING assay buffer containing STING protein (100 nM final) was added and the mixture was incubated at rt for 60 minutes. The plates were then read on a BMG PheraStar Plus reader (LanthaScreen module).
For the assay method described above, test compound percent inhibition, at various concentrations, was calculated relative to untreated and DMSO only treated samples. Compound concentration versus percent inhibition curves were fitted to generate IC50 values.

| SMILES | EC50 ([1]; Homo sapiens, THP1-Dual, 20 h) [µM] | IC50 [2] [µM] | EC50 [1] [µM] |
| --- | --- | --- | --- |
| Nc1nc2c(ncn2[C@@H]2O[C@@H]3COP(=O)(S)O[C@@H]4[C@@H](COP(=O)(O)O[C@@H]2[C@@H]3F)C[C@@H](Nc2ccncn2)[C@@H]4F)c(=O)[nH]1 (stereo partly drawn) [Compound I-21, 2-amino-9-[(2S,5R,7R,8S,12aR,14R,15S,15aR,16R)-15,16-difluoro-10-hydroxy-2,10-dioxido-14-(pyrimidin-4-ylamino)-2-sulfanyldecahydro-5,8-methanocyclopenta[1][1,3,6,9,11,2,10]pentaoxadiphosphacyclotetradecin-7-yl]-1,9-dihydro-6H-purin-6-one] | 1 to 10 | < 1 | – |
| Nc1nc2c(ncn2[C@@H]2O[C@@H]3COP(=O)(O)O[C@@H]4[C@@H](COP(=O)(S)O[C@@H]2[C@@H]3O)C[C@@H](Nc2ncncn2)[C@@H]4F)c(=O)[nH]1 (single isomer, unassigned) [Compound I-42] | 1 to 10 | < 1 | – |
| Nc1nc2c(ncn2[C@@H]2O[C@@H]3COP(=O)(S)O[C@H]4C[C@H](Oc5ccncn5)C[C@@H]4COP(=O)(O)O[C@@H]2[C@@H]3O)c(=O)[nH]1 (stereo partly drawn) [Compound I-17, 2-amino-9-[(2S,5R,7R,8R,12aR,14R,15aS,16R)-10,16-dihydroxy-2,10-dioxido-14-(pyrimidin-4-yloxy)-2-sulfanyldecahydro-5,8-methanocyclopenta[1][1,3,6,9,11,2,10]pentaoxadiphosphacyclotetradecin-7-yl]-1,9-dihydro-6H-purin-6-one] | 1 to 10 | < 1 | – |
| Nc1nc2c(ncn2[C@@H]2O[C@@H]3COP(=O)(O)O[C@H]4C[C@H](Oc5ccncn5)C[C@@H]4COP(=O)(O)O[C@@H]2[C@@H]3O)c(=O)[nH]1 [Compound I-10, 2-amino-9-[(5R,7R,8R,12aR,14R,15aS,16R)-2,10,16-trihydroxy-2,10-dioxido-14-(pyrimidin-4-yloxy)decahydro-5,8-methanocyclopenta[1][1,3,6,9,11,2,10]pentaoxadiphosphacyclotetradecin-7-yl]-1,9-dihydro-6H-purin-6-one] | 1 to 10 | < 1 | – |
| Nc1nc2c(ncn2[C@@H]2O[C@@H]3COP(=O)(S)O[C@@H]4[C@@H](COP(=O)(S)O[C@@H]2[C@@H]3F)C[C@@H](Nc2ccncn2)[C@@H]4F)c(=O)[nH]1 (stereo partly drawn) [Compound I-38a, 2-amino-9-[(2S,5R,7R,8S,10S,12aR,14R,15S,15aR,16R)-15,16-difluoro-2,10-dioxido-14-(pyrimidin-4-ylamino)-2,10-disulfanyldecahydro-5,8-methanocyclopenta[1][1,3,6,9,11,2,10]pentaoxadiphosphacyclotetradecin-7-yl]-1,9-dihydro-6H-purin-6-one] | 1 to 10 | < 1 | – |
| Nc1nc2c(ncn2[C@@H]2O[C@@H]3COP(=O)(S)O[C@@H]4[C@@H](COP(=O)(S)O[C@@H]2[C@@H]3O)C[C@@H](Oc2ccncn2)[C@@H]4F)c(=O)[nH]1 (single isomer, unassigned) [Compound I-39b] | – | < 1 | < 1 |
| Nc1nc2c(ncn2[C@@H]2O[C@@H]3COP(=O)(O)O[C@H]4C[C@H](Nc5ncncn5)C[C@@H]4COP(=O)(O)O[C@@H]2[C@@H]3O)c(=O)[nH]1 [Compound I-27, 2-amino-9-[(5R,7R,8R,12aR,14R,15aS,16R)-2,10,16-trihydroxy-2,10-dioxido-14-(1,3,5-triazin-2-ylamino)decahydro-5,8-methanocyclopenta[1][1,3,6,9,11,2,10]pentaoxadiphosphacyclotetradecin-7-yl]-1,9-dihydro-6H-purin-6-one] | 10 to 25 | < 1 | – |
| Nc1nc2c(ncn2[C@@H]2O[C@@H]3COP(=O)(S)O[C@H]4C[C@H](Nc5ncncc5F)C[C@@H]4COP(=O)(S)O[C@@H]2[C@@H]3O)c(=O)[nH]1 (stereo partly drawn) [Compound I-34b, 2-amino-9-{(2S,5R,7R,8R,10S,12aR,14R,15aS,16R)-14-[(5-fluoropyrimidin-4-yl)amino]-16-hydroxy-2,10-dioxido-2,10-disulfanyldecahydro-5,8-methanocyclopenta [1][1,3,6,9,11,2,10]pentaoxadiphosphacyclotetradecin-7-yl}-1,9-dihydro-6H-purin-6-one] | – | < 1 | 1 to 10 |
| Nc1nc2c(ncn2[C@@H]2O[C@@H]3COP(=O)(O)O[C@@H]4[C@@H](COP(=O)(S)O[C@@H]2[C@@H]3F)C[C@@H](Nc2ccncn2)[C@@H]4F)c(=O)[nH]1 (stereo partly drawn) [Compound I-24a, 2-amino-9-[(5R,7R,8S,10S,12aR,14R,15S,15aR,16R)-15,16-difluoro-2-hydroxy-2,10-dioxido-14-(pyrimidin-4-ylamino)-10-sulfanyldecahydro-5,8-methanocyclopenta[1][1,3,6,9,11,2,10]pentaoxadiphosphacyclotetradecin-7-yl]-1,9-dihydro-6H-purin-6-one] | 1 to 10 | < 1 | – |
| Nc1nc2c(ncn2[C@@H]2O[C@@H]3COP(=O)(O)O[C@@H]4[C@@H](COP(=O)(O)O[C@@H]2[C@@H]3O)C[C@@H](Nc2ncncn2)[C@@H]4F)c(=O)[nH]1 [Compound I-40, 2-amino-9-[(5R,7R,8R,12aR,14R,15S,15aR,16R)-15-fluoro-2,10,16-trihydroxy-2,10-dioxido-14-(1,3,5-triazin-2-ylamino)decahydro-5,8-methanocyclopenta[1][1,3,6,9,11,2,10]pentaoxadiphosphacyclotetradecin-7-yl]-1,9-dihydro-6H-purin-6-one] | 10 to 25 | < 1 | – |
| Nc1nc2c(ncn2[C@@H]2O[C@@H]3COP(=O)(S)O[C@@H]4[C@@H](COP(=O)(S)O[C@@H]2[C@@H]3O)C[C@@H](Nc2ncncn2)[C@@H]4F)c(=O)[nH]1 (single isomer, unassigned) [Compound I-45] | 1 to 10 | < 1 | – |
| Nc1nc2c(ncn2[C@@H]2O[C@@H]3COP(=O)(S)O[C@@H]4[C@@H](COP(=O)(S)O[C@@H]2[C@@H]3O)C[C@@H](Oc2ccncn2)[C@@H]4F)c(=O)[nH]1 (single isomer, unassigned) [Compound I-39a] | 1 to 10 | < 1 | – |
| Nc1nc2c(ncn2[C@@H]2O[C@@H]3COP(=O)(S)O[C@@H]4[C@@H](COP(=O)(O)O[C@@H]2[C@@H]3O)C[C@@H](Nc2ncncn2)[C@@H]4F)c(=O)[nH]1 (single isomer, unassigned) [Compound I-43] | 1 to 10 | – | – |
| Nc1nc2c(ncn2[C@@H]2O[C@@H]3COP(=O)(O)O[C@@H]4[C@@H](COP(=O)(O)O[C@@H]2[C@@H]3O)C[C@@H](Nc2ccncn2)[C@@H]4F)c(=O)[nH]1 [Compound I-46, 2-amino-9-[(5R,7R,8R,12aR,14R,15S,15aR,16R)-15-fluoro-2,10,16-trihydroxy-2,10-dioxido-14-(pyrimidin-4-ylamino)decahydro-5,8-methanocyclopenta[1][1,3,6,9,11,2,10]pentaoxadiphosphacyclotetradecin-7-yl]-1,9-dihydro-6H-purin-6-one] | 10 to 25 | < 1 | – |
| Nc1nc2c(ncn2[C@@H]2O[C@@H]3COP(=O)(S)O[C@H]4C[C@H](Nc5ncncc5F)C[C@@H]4COP(=O)(S)O[C@@H]2[C@@H]3O)c(=O)[nH]1 (stereo partly drawn) [Compound I-34a, 2-amino-9-{(2S,5R,7R,8R,10S,12aR,14R,15aS,16R)-14-[(5-fluoropyrimidin-4-yl)amino]-16-hydroxy-2,10-dioxido-2,10-disulfanyldecahydro-5,8-methanocyclopenta[1][1,3,6,9,11,2,10]pentaoxadiphosphacyclotetradecin-7-yl}-1,9-dihydro-6H-purin-6-one] | < 1 | < 1 | – |
| Nc1nc2c(ncn2[C@@H]2O[C@@H]3COP(=O)(S)O[C@H]4C[C@H](Nc5ccncn5)C[C@@H]4COP(=O)(O)O[C@@H]2[C@@H]3O)c(=O)[nH]1 (stereo partly drawn) [Compound I-18, 2-amino-9-[(2S,5R,7R,8R,12aR,14R,15aS,16R)-10,16-dihydroxy-2,10-dioxido-14-(pyrimidin-4-ylamino)-2-sulfanyldecahydro-5,8-methanocyclopenta[1][1,3,6,9,11,2,10]pentaoxadiphosphacyclotetradecin-7-yl]-1,9-dihydro-6H-purin-6-one] | 1 to 10 | < 1 | – |
